According to patent publication US20120244120A1, “INHIBITORS OF HEMOPOIETIC CELL KINASE (P59-HCK) AND THEIR USE IN THE TREATMENT OF INFLUENZA INFECTION” (priority 2009, published 2012):
Marks after values point to notes of the source that are not given here.

Assays:
[1] = tested on: influenza (H3N1 Memphis 71); conditions: mouse, in vivo
[2] = tested on: influenza (H1N1A/PR/8/34); test: microbe, parasite or virus in culture; type: cell-based
c-Src enzyme = c-Src enzyme (Homo sapiens, UniProt P12931); test: c-Src enzyme assay (Z'-LYTE FRET); type: biochemical; conditions: ATP 200 μM
Sequence of c-Src enzyme (P12931 whole entry): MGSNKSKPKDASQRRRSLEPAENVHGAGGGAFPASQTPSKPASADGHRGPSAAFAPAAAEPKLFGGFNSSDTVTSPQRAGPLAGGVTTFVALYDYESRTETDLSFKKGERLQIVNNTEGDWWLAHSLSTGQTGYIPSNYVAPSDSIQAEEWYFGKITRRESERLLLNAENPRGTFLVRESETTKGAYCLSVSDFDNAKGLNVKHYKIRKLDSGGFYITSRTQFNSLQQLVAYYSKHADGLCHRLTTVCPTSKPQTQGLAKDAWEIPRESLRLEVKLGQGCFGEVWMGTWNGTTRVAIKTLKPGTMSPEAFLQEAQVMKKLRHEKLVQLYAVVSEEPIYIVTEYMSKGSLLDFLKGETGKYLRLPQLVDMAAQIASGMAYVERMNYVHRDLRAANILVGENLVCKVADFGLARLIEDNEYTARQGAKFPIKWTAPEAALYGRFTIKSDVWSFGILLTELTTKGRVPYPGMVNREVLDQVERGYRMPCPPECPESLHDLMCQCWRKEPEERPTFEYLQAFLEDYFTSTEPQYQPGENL

HCK enzyme = HCK enzyme (Homo sapiens, UniProt P08631); test: HCK enzyme assay (Z'-LYTE FRET); type: biochemical; conditions: 2 hr pre-incubation, ATP 15 μM
Sequence of HCK enzyme (P08631 22-526): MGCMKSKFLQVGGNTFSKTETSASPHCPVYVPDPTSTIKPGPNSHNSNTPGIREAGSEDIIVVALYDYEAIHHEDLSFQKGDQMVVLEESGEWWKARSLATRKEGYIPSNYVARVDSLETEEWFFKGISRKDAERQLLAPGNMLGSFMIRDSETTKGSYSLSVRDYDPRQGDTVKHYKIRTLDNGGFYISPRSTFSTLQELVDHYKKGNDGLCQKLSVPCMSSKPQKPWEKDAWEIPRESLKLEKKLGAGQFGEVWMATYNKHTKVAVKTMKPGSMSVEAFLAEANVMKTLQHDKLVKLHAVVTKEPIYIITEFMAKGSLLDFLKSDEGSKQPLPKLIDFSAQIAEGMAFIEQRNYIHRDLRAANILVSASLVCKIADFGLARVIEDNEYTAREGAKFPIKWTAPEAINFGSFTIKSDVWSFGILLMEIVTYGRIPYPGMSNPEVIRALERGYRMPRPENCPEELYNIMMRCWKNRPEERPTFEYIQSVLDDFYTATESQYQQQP

p38 MAPKα (MAPK14) = p38 MAPKα (MAPK14) (Homo sapiens, UniProt Q16539); test: p38α enzyme assay (Z'-LYTE FRET, via MAPKAP-K2 activation); type: biochemical; conditions: 2 hr pre-incubation, ATP 10 μM
Sequence of p38 MAPKα (MAPK14) (Q16539 whole entry): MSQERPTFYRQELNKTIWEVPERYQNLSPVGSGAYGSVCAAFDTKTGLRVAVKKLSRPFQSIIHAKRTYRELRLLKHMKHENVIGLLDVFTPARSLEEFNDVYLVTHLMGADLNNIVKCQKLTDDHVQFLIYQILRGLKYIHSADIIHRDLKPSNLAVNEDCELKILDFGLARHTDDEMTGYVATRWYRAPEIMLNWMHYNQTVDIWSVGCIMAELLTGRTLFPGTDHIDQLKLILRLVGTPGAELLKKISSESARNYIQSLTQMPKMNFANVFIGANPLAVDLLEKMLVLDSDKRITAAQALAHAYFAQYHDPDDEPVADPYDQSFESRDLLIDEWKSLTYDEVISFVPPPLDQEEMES

MDCK cells = test: MTT assay (MDCK cells); type: cell-based, canine; conditions: final concentration of 10 μg/mL
Protocol: The cells were then washed with 10% FCS DMEM, and incubated in 10% FCS DMEM containing 0.25 mg/mL MTT for 2 hr. The media were then removed, 200 μL of DMSO added to each well and the plates were shaken lightly for 1 hr prior to reading the absorbance at 550 nm.

[3] = Influenza A virus, MDCK, read-out: IC50 (nM) Influenza-Induced CPE
[4] = Influenza A virus; MDCK cells, H1N1 A/PR/8/34, MOI 0.1; non-linear regression; read-out: IC50 (nM) Influenza-Induced CPE
[5] = MDCK; read-out: IC50 (nM) Influenza-Induced CPE

SMILES	IC50 (c-Src enzyme) [nM]	IC50 [2, 4] [nM]	IC50 (HCK enzyme) [nM]	IC50 (p38 MAPKα (MAPK14)) [nM]	further results
COCC(=O)Nc1cc(COc2ccc(NC(=O)Nc3cc(C(C)(C)C)nn3-c3ccc(C)cc3)c3ccccc23)ccn1 [Example 1, N-(4-((4-(3-(3-tert-Butyl-1-p-tolyl-1H-pyrazol-5-yl)ureido)naphthalen-1-yloxy)methyl)pyridin-2-yl)-2-methoxyacetamide]					Lung viral load [1]: 8.1 ± 1.9 pfu/g lung tissue (×10^6); decrease in viral load versus vehicle controls [1]: approximately 80%; IC50 [2, 3]: 6 nM
CNC(=O)Nc1cc(COc2ccc(NC(=O)Nc3cc(C(C)(C)C)nn3-c3ccc(C)cc3)c3ccccc23)ccn1 [Example 2, Methyl 4-((4-(3-(3-tert-butyl-1-p-tolyl-1H-pyrazol-5-yl)ureido)naphthalen-1-yloxy)methyl)pyridin-2-ylurea]	45	11	17	2.8	
COCCNC(=O)CNC(=O)Nc1cc(COc2ccc(NC(=O)Nc3cc(C(C)(C)C)nn3-c3ccc(C)cc3)c3ccccc23)ccn1 [Example 15, 2-(3-(4-((4-(3-(3-tert-Butyl-1-p-tolyl-1H-pyrazol-5-yl)ureido)naphthalen-1-yloxy)methyl)pyridin-2-yl)ureido)-N-(2-methoxyethyl)acetamide]	28		65		IC50 [2, 5]: > 0.2 µg/mL; MTT assay 4 hr (MDCK cells; 4 hr): −ve (<30% = −ve); MTT assay 24 hr (MDCK cells; 24 hr): −ve (<30% = −ve)
Cc1ccc(-n2nc(C(C)(C)C)cc2NC(=O)Nc2ccc(OCc3ccnc(NC(=O)CCCN(C)C)c3)c3ccccc23)cc1 [Example 16, N-(4-((4-(3-(3-tert-Butyl-1-p-tolyl-1H-pyrazol-5-yl)ureido)naphthalen-1-yloxy)methyl)pyridin-2-yl)-4-(dimethylamino)butanamide]	28	166	20	10.3	
Cc1ccc(-n2nc(C(C)(C)C)cc2NC(=O)Nc2ccc(OCc3ccnc(NC(=O)CCS(C)(=O)=O)c3)c3ccccc23)cc1 [Example 17, N-(4-((4-(3-(3-tert-Butyl-1-p-tolyl-1H-pyrazol-5-yl)ureido)naphthalen-1-yloxy)methyl)pyridin-2-yl)-3-(methylsulfonyl)propanamide]	149	64	60	2.7	
Cc1ccc(-n2nc(C(C)(C)C)cc2NC(=O)Nc2ccc(OCc3ccnc(NC(=O)C[S+](C)[O-])c3)c3ccccc23)cc1 (stereo not shown) [Example 20, N-(4-((4-(3-(3-tert-Butyl-1-p-tolyl-1H-pyrazol-5-yl)ureido)naphthalen-1-yloxy)methyl)pyridin-2-yl)-2-(methylsulfinyl)acetamide]	161		176		IC50 [2, 3]: 486 nM
Cc1ccc(-n2nc(C(C)(C)C)cc2NC(=O)Nc2ccc(OCc3ccnc(NC(=O)CS(=O)(=O)CCN4CCOCC4)c3)c3ccccc23)cc1 [Example 32, N-(4-((4-(3-(3-tert-Butyl-1-p-tolyl-1H-pyrazol-5-yl)ureido)naphthalen-1-yloxy)methyl)pyridin-2-yl)-2-(2-morpholinoethylsulfonyl)acetamide]	111		183	1	IC50 [2, 5]: > 0.04 µg/mL
CNC(=O)Nc1cnccc1COc1ccc(NC(=O)Nc2cc(C(C)(C)C)nn2-c2ccc(C)cc2)c2ccccc12 [Example 34, 1-(4-((3-Methylureidopyridin-4-yl)methoxy)naphthalen-1-yl)-3-(3-tert-butyl-1-p-tolyl-1H-pyrazol-5-yl)urea]	> 17300		742		IC50 [2, 5]: > 0.2 µg/mL
COCCOCC(=O)Nc1cnccc1COc1ccc(NC(=O)Nc2cc(C(C)(C)C)nn2-c2ccc(C)cc2)c2ccccc12 [Example 36, N-(4-((4-(3-(3-tert-Butyl-1-p-tolyl-1H-pyrazol-5-yl)ureido)naphthalen-1-yloxy)methyl)pyridin-3-yl)-2-(2-methoxyethoxy)acetamide]	9330		> 1570		IC50 ([2]; MDCK, read-out: IC50 (nM) Influenza-Induced CPE): > 0.2 µg/mL
Cc1ccc(-n2nc(C(C)(C)C)cc2NC(=O)Nc2ccc(OCCc3ccnc(NC(N)=O)c3)c3ccccc23)cc1 [Example 40, 4-(2-(4-(3-(3-tert-Butyl-1-p-tolyl-1H-pyrazol-5-yl)ureido)naphthalen-1-yloxy)ethyl)-3-(pyridin-2-yl)urea]	> 17300		276		IC50 [2, 3]: 97 nM
COCC(=O)Nc1cc(COc2ccc(NC(=O)Nc3cc(C(C)(C)C)nn3-c3ccc(CO)cc3)c3ccccc23)ccn1 [Example 49, N-(4-((4-(3-(3-tert-Butyl-1-(4-(hydroxymethyl)phenyl)-1H-pyrazol-5-yl)ureido)naphthalen-1-yloxy)methyl)pyridin-2-yl)-2-methoxyacetamide]	155	32	24	5	
